Reference: patent US20190322698A1, “WATER-SOLUBLE ALLOPR[…] USE THEREOF” (JIANGSU NHWALUOKANG PHARMACEUTICAL RESEARCH AND DEVELOPMENT …, priority 2016, published 2019)

Key:
[1] = Dissociation test of the compounds in whole blood of rats; assay type: in vitro ADME; details: rat whole blood, 37° C., HPLC
Protocol: Each of the compounds to be tested was weighed (1 mg), placed in water (2 ml), and formulated into a solution having a concentration of about 0.5 mg/ml as a stock solution for further use. Whole blood of rats (0.45 ml) was taken and placed in a 2 ml EP tube, which was placed in a 37° C. water bath for preheating for 20 seconds. Then the stock solution of the compound (50 μL) was added quickly. After a homogeneous mixing, the EP tube was placed in a 37° C. water bath, and time counting was initiated. Acetonitrile (1 ml) was injected immediately at predetermined time points (1 min, 3 min, 5 min, 15 min). The solution was centrifuged for 5 min (15000 rpm), filtered with a 0.22 μm filtration membrane and subjected to HPLC detection, and the results were given below: […]

[2] = Stability test of the compounds in a 5% aqueous glucose solution; assay type: physicochemical; details: room temperature; for Dissociation percent (%): 5% glucose solution, about 0.5 mg/ml, HPLC; for Solution: appearance of the about 0.5 mg/ml solution in 5% glucose
Protocol: Each of the compounds to be tested was weighed (1 mg), placed in a 5% glucose solution (2 ml) and formulated into a solution having a concentration of about 0.5 mg/ml. The solution stood at room temperature, and was sampled at several time points (0.5 h, 1 h, 2 h, 3 h and 5 h).

[3] = Solubility of the compounds in water (25° C.); assay type: physicochemical

Compound: CC(=O)C1CCC2C3CCC4CC(OC(=O)C(F)C(=O)[O-])CCC4(C)C3CCC12C.[Na+] (stereo not drawn) [Compound 10]
- Dissociation percent (%) ([1]; 1 min): 39.78%
- Dissociation percent (%) ([1]; 3 min): 52.28%
- Dissociation percent (%) ([1]; 5 min): 72.31%
- Dissociation percent (%) ([1]; 15 min): 100%
- Dissociation percent (%) ([2]; 0 h): 0.02%
- Dissociation percent (%) ([2]; 0.5 h): 0.14%
- Dissociation percent (%) ([2]; 1 h): 0.21%
- Dissociation percent (%) ([2]; 2 h): 0.36%
- Dissociation percent (%) ([2]; 3 h): 0.51%
- Dissociation percent (%) ([2]; 5 h): 0.86%
- Solution [2]: Clear
- Solubility [3]: >400 µg/mL

Compound: CC(=O)C1CCC2C3CCC4CC(OC(=O)C(F)CC(=O)[O-])CCC4(C)C3CCC12C.[Na+] (stereo not drawn) [Compound 11]
- Dissociation percent (%) ([1]; 1 min): 40.83%
- Dissociation percent (%) ([1]; 3 min): 50.35%
- Dissociation percent (%) ([1]; 5 min): 69.32%
- Dissociation percent (%) ([1]; 15 min): 100%
- Dissociation percent (%) ([2]; 0 h): 0.02%
- Dissociation percent (%) ([2]; 0.5 h): 0.11%
- Dissociation percent (%) ([2]; 1 h): 0.19%
- Dissociation percent (%) ([2]; 2 h): 0.32%
- Dissociation percent (%) ([2]; 3 h): 0.49%
- Dissociation percent (%) ([2]; 5 h): 0.79%
- Solution [2]: Clear
- Solubility [3]: >400 µg/mL

Compound: CC(=O)C1CCC2C3CCC4CC(OC(=O)C(F)CCOP(=O)([O-])[O-])CCC4(C)C3CCC12C.[Na+].[Na+] (stereo not drawn) [Compound 16]
- Dissociation percent (%) ([1]; 1 min): 35.94%
- Dissociation percent (%) ([1]; 3 min): 47.88%
- Dissociation percent (%) ([1]; 5 min): 66.47%
- Dissociation percent (%) ([1]; 15 min): 94.56%
- Dissociation percent (%) ([2]; 0 h): 0.02%
- Dissociation percent (%) ([2]; 0.5 h): 0.13%
- Dissociation percent (%) ([2]; 1 h): 0.21%
- Dissociation percent (%) ([2]; 2 h): 0.41%
- Dissociation percent (%) ([2]; 3 h): 0.62%
- Dissociation percent (%) ([2]; 5 h): 0.93%
- Solution [2]: Clear
- Solubility [3]: >300 µg/mL
